US11183645B2, “Organic thin film and method for manufacturing organic thin film, organic electroluminescence element, display device, illumination device, organic thin film solar cell, thin film transistor, and coating composition” (NIPPON HOSO KYOKAI, priority 2015, dated 2021)
Like-named read-outs stand apart in the source and are kept apart here.

Test: acid dissociation constant pKa of the first material
Conditions: for pKa (H2O): acid dissociation constant in water, first materials of the electron injection layer
From the text: In the present invention, the “pKa” usually means the “acid dissociation constant in water”. When the pKa cannot be measured in water, it means the “acid dissociation constant in dimethyl sulfoxide (DMSO)”, and when the pKa cannot be measured even in DMSO, it means the “acid dissociation constant in acetonitrile”. The pKa preferably means the “acid dissociation constant in water”.

Row | Compound | pKa (H2O) | pKa | pKa (water)
1 | CN(C)P(=NC(C)(C)C)(N=P(N(C)C)(N(C)C)N(C)C)N(C)C [Phosphazene base P2-t-Bu] | 20 |  | 
2 | CN(C)c1ccc2cc3ccc(N(C)C)cc3nc2c1 [AOB, acridine orange] |  | ≥ 1 | 
3 | C1CCC2=NCCCN2CC1 [DBU, 1,8-diazabicyclo[5.4.0]undecene-7] | 12.5 |  | 
4 | C1=Cc2ccccc2C1 [indene] |  | ≥ 1 | 
5 | CN(C)c1ccncc1 [4-DMAP, 4-dimethylaminopyridine] |  |  | 9.7
6 | COc1cccnc1 [3-MeOP, 3-methoxypyridine] |  |  | 4.88
